Here are results for nine compounds from patent US12157739B2, “Hypoxanthine compounds” (KISSEI PHARMACEUTICAL CO., LTD., priority 2018, dated 2024).

Data set [1] deals with human PHD2184-418 (Homo sapiens (Human), UniProt Q9GZT9). The data set can be described thus: PHD2 inhibitory test (fluorescence polarization). It is filed as binding. Conditions: human PHD2184-418, FITC-labeled HIF-1α556-574 substrate, 2 μM 2-oxoglutarate, 37° C. 60 minutes. How it is done:
(1) Expression and Preparation of Human PHD2184-418
Human PHD2184-418 containing amino acid residues 184 to 418 of the protein represented by CAC42509 (GenBank accession ID) was expressed and prepared by the following method.
An expression construct of human PHD2184-418 containing N-terminal histidine tag was introduced into pET-30a (+) vector, and the sequence was confirmed. This vector was introduced into BL21 (DE3) strain and cultured at 37° C. in LB medium containing antibiotics. After culturing, a cell lysis solution was added to the cells, and then the cells were disrupted by sonication. The disrupted suspension was centrifuged and the supernatant was purified by Ni column to give human PHD2184-418.
Human HIF-1α556-574 (FITC-labeled HIF-1α556-574), containing N-terminal FITC-Ahx, containing amino acid residues 556 to 574 (partial peptide) of HIF-1α was used as a substrate. Using FITC-labeled HIF-1α556-574, the competitive inhibition between 2-oxoglutarate and test compounds (PHD inhibitor) was evaluated based on the change in fluorescence polarization by the following method.
An enzyme (human PHD2184-418) and the substrate were diluted with an assay buffer (pH 7.4) containing 10 mM HEPES, 150 mM NaCl, 10 μM MnCl2-4H2O, 2 μM 2-oxoglutarate and 0.05% Tween-20. Test compounds were diluted with DMSO. Test compounds and human PHD2184-418 was added to the 384-well plate (Corning, black, opaque bottom) in advance. The reaction was started by the addition of FITC-labeled HIF-1α556-574. After incubating at 37° C. for 60 minutes, fluorescence polarization (excitation wavelength: 470 nm, fluorescence wavelength: 530 nm) was measured by PHERAstar FSX (BMG Labtech). Fluorescence polarization of each well was measured, and human PHD2 binding inhibitory activity of test compounds was calculated based on the value of test compound-free group.

Data set [2] concerns TNBS induced colitis model rat. The data set is described as follows: Therapeutic effect in TNBS induced colitis model rat (intestinal permeability of FITC). It is filed as in vivo. Conditions: po, 72 h, SD rats, mean, read-out: Inhibition (%): suppressive rate on the intestinal permeability; for inhibition in vivo at 3 mg/kg: 3 mg/kg orally once a day for 3 days. How it is done:
SD rats: 8-weeks-old male SLC (Japan SLC) were used. Under pentobarbital anesthesia, 300 μL of TNBS (28 mg/mL) which was prepared by 50% ethanol was administered at a point 8 cm from anus in large intestine to cause inflammation. To the solvent-treated group was administrated 300 μL of 50% ethanol. Animals were fasted for 48 hours prior to administration of TNBS. Test compounds (3 mg/kg or 10 mg/kg) prepared by 0.05% methylcellulose solution were orally administered once a day from next day, and it was administered for a total of 3 days. After administering for 3 days, 50 mg/kg FITC was orally administered at 4 hours after administration. Blood samples were collected from jugular vein under isoflurane anesthesia after 4 hours. The serum was centrifuged and fluorescence intensity was detected by PHERAstar FSX (BMG Labtech) to measure the concentration of FITC permeating into circulating blood through the mesentery. The suppressive rate on the intestinal permeability of test compounds was calculated based on the value of test compounds-free group as 0 and the value of TNBS-untreated group as 100.

A short description of data set [3]: Rat PK study: concentration of compounds in large intestine tissue and plasma. Format: in vivo. Conditions: male, 3 mg/kg oral, non-fasted SD rats; for Kp at 8 h: large intestine tissue / plasma, read-out: C/P: ratio of Colon and Plasma; for Cmax: read-out: Cmax: maximum plasma concentration. The method, then: Test compounds (3 mg/kg/5 mL) prepared by 0.05% methylcellulose were orally administered to non-fasted rats (SD, 8-weeks-old, male, Japan SLC). Blood samples were collected from jugular vein at 0.25, 0.5, 1, 2, 4, 6 and 8 hours after the administration. Laparotomy was performed under isoflurane anesthesia and large intestine was isolated. Collected distal large intestine (about 5 cm) was cut open, and then the large intestine was washed with saline on a dish. After washing, the large intestine was minced by a small scissors. About 150 mg thereof was moved to tube. To the tube was added 100 μL of saline, the mixture was homogenized using shake master (1000 rpm×30 minutes). Samples were prepared by the addition with quadruple volume of saline as final volume. The concentrations of the test compound in large intestine tissue and plasma were measured through a quantitative analysis using liquid chromatography-mass spectrometry (LC/MS).
• Cmax: maximum plasma concentration of test compounds in the case of oral administration (ng/mL) • AUC: area under the plasma test compound concentration-time curve (ng*min/mL) • Plasma: plasma test compound concentration after 8 hours (ng/ml) • Colon: concentrations of the test compound in large intestine tissue after 8 hours (ng/g) • C/P: ratio of the above Colon and Plasma

Assay in data set [4]: as above
It is filed as in vivo. Conditions: male, plasma, 3 mg/kg oral, non-fasted SD rats, read-out: AUC: area under the plasma test compound concentration-time curve (converted).

The mark [5] stands for this setting: large intestine tissue (distal, colon), read-out: Colon: concentration in large intestine tissue after 8 hours.
Where [6] appears, read: plasma, read-out: Plasma: plasma test compound concentration after 8 hours.

Each structure is given as a SMILES string. Like-named read-outs stand apart in the source and are kept apart here.

Chain of human PHD2184-418 (Q9GZT9 184-418): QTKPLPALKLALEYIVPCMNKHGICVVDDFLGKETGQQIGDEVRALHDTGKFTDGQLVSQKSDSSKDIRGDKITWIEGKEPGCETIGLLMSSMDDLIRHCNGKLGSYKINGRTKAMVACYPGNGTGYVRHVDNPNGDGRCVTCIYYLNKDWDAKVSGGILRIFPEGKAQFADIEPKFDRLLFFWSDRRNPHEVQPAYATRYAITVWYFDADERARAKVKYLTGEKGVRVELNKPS

In turn, `O=C(O)c1cnn(-c2nc3ncn(Cc4ccc(-c5ccccc5)cc4)c3c(=O)[nH]2)c1` [Example 1, 1-(7-([1,1′-Biphenyl]-4-ylmethyl)-6-oxo-6,7-dihydro-1H-purin-2-yl)-1H-pyrazole-4-carboxylic acid] registered an IC50 in data set [1] of 90 nM. For the same compound, in data set [2] (10 mg/kg orally once a day for 3 days), the inhibition in vivo at 10 mg/kg was 54%. Moreover, the concentration at 8 h was 109 ng/g in data set [3] (setting [5]) and 3 ng/mL in data set [3] (setting [6]). Further, in data set [3], the Kp at 8 h was found to be 36. Moreover, the Cmax in data set [3] (plasma) was determined as 11 ng/mL. Also, the AUC in data set [4] is 46.3 ng·h/mL.
On to `O=C(O)c1cnn(-c2nc3ncn(Cc4ccc(O)cc4)c3c(=O)[nH]2)c1` [Example 3, 1-(7-(4-Hydroxybenzyl)-6-oxo-6,7-dihydro-1H-purin-2-yl)-1H-pyrazole-4-carboxylic acid], for which half-maximal inhibition in data set [1] (IC50) was put at 640 nM. Besides, the inhibition in vivo at 3 mg/kg in data set [2] was determined as 93%. Further, the concentration at 8 h in data set [3] (setting [5]) is 87 ng/g; in data set [3] (setting [6]) it was less than 1 ng/mL. Further, in data set [3], the Kp at 8 h is greater than 87. The Cmax in data set [3] (plasma) was determined as 6 ng/mL. In addition, the AUC in data set [4] is 3.27 ng·h/mL.
For `O=C(O)c1cnn(-c2nc3c(ncn3Cc3ccc(O)cc3)c(=O)[nH]2)c1` [Example 29, 1-(9-(4-Hydroxybenzyl)-6-oxo-6,9-dihydro-1H-purin-2-yl)-1H-pyrazole-4-carboxylic acid], the IC50 in data set [1] amounted to 370 nM. Further, the inhibition in vivo at 3 mg/kg in data set [2] is 86%. The concentration at 8 h in data set [3] (setting [5]) was 646 ng/g; in data set [3] (setting [6]) it was less than 1 ng/mL. For the same compound, the Kp at 8 h in data set [3] is greater than 646. The Cmax in data set [3] (plasma) was less than 1 ng/mL.
`O=C(O)c1ccc(Cn2cnc3nc(-n4cc(C(=O)O)cn4)[nH]c(=O)c32)cc1` [Example 12, 1-(7-(4-Carboxybenzyl)-6-oxo-6,7-dihydro-1H-purin-2-yl)-1H-pyrazole-4-carboxylic acid] had a concentration for half-maximal inhibition (IC50) in data set [1] of 610 nM. Also, in data set [2], the inhibition in vivo at 3 mg/kg worked out at 78%. Besides, the concentration at 8 h in data set [3] (setting [5]) came to 67 ng/g; in data set [3] (setting [6]) it was 2 ng/mL. Also, the Kp at 8 h in data set [3] is 34. Besides, the Cmax in data set [3] (plasma) was 16 ng/mL. Also, in data set [4], the AUC is 49.9 ng·h/mL.
Regarding `COc1ccc(Cn2cnc3c(=O)[nH]c(-n4cc(C(=O)O)cn4)nc32)cc1` [Example 35, 1-(9-(4-Methoxybenzyl)-6-oxo-6,9-dihydro-1H-purin-2-yl)-1H-pyrazole-4-carboxylic acid], the half-maximal inhibitory concentration (IC50) in data set [1] was 590 nM. For the same compound, the inhibition in vivo at 3 mg/kg in data set [2] came out at 81%. The concentration at 8 h in data set [3] (setting [5]) was 11 ng/g; in data set [3] (setting [6]) it was less than 1 ng/mL. Also, the Kp at 8 h in data set [3] was greater than 11. Further, the Cmax in data set [3] (plasma) was less than 1 ng/mL.
Compound `O=C(O)c1cnn(-c2nc3ncn(COCc4ccccc4)c3c(=O)[nH]2)c1` [Example 2, 1-(7-((Benzyloxy)methyl)-6-oxo-6,7-dihydro-1H-purin-2-yl)-1H-pyrazole-4-carboxylic acid] showed a half-maximal inhibitory concentration (IC50) in data set [1] of 640 nM. In addition, the inhibition in vivo at 3 mg/kg in data set [2] amounted to 51%. For the same compound, the concentration at 8 h is 188 ng/g in data set [3] (setting [5]) and less than 1 ng/mL in data set [3] (setting [6]). Besides, the Kp at 8 h in data set [3] is greater than 188. Besides, the Cmax in data set [3] (plasma) was 3 ng/mL. Also, the AUC in data set [4] is 0.833 ng·h/mL.
Turning to `Cl.O=C(O)c1cnn(-c2nc3ncn(Cc4ccc(OCCN5CCOCC5)cc4)c3c(=O)[nH]2)c1` [Example 75, 1-(7-(4-(2-Morpholinoethoxy)benzyl)-6-oxo-6,7-dihydro-1H-purin-2-yl)-1H-pyrazole-4-carboxylic acid hydrochloride], the IC50 in data set [1] was determined as 420 nM. In data set [2], the inhibition in vivo at 3 mg/kg worked out at 80%. Besides, the concentration at 8 h stood at 323 ng/g in data set [3] (setting [5]) and 1 ng/mL in data set [3] (setting [6]). Further, in data set [3], the Kp at 8 h is greater than 323. For the same compound, the Cmax in data set [3] (plasma) is 4 ng/mL. Besides, the AUC in data set [4] is 12.9 ng·h/mL.
In data set [1], `CS(=O)(=O)c1ccc(Cn2cnc3nc(-n4cc(C(=O)O)cn4)[nH]c(=O)c32)cc1` [Example 4, 1-(7-(4-(Methylsulfonyl)benzyl)-6-oxo-6,7-dihydro-1H-purin-2-yl)-1H-pyrazole-4-carboxylic acid] gave an IC50 of 530 nM. Also, in data set [2], the inhibition in vivo at 3 mg/kg came to 66%. In addition, the concentration at 8 h came to 94 ng/g in data set [3] (setting [5]) and 2 ng/mL in data set [3] (setting [6]). For the same compound, in data set [3], the Kp at 8 h is 47. In addition, the Cmax in data set [3] (plasma) came to 6 ng/mL. Also, in data set [4], the AUC is 29.2 ng·h/mL.
As for `COc1ccc(Cn2cnc3nc(-n4cc(C(=O)O)cn4)[nH]c(=O)c32)cc1` [Example 11, 1-(7-(4-Methoxybenzyl)-6-oxo-6,7-dihydro-1H-purin-2-yl)-1H-pyrazole-4-carboxylic acid], in data set [2], the inhibition in vivo at 3 mg/kg was found to be 83%. For the same compound, the Cmax in data set [3] (plasma) is 10 ng/mL. The AUC in data set [4] was 18.2 ng·h/mL.
